Assay results taken from a melting point compilation (Tetko et al.).
Non-standard residues stand in square brackets, D forms with d. Residues, ends and D or L forms follow the SMILES beside them. ξ: configuration not given here. *: point of attachment. X1 = COC1=CC(=O)N(C(=O)C(O*)C(C)C)C1Cc1ccccc1; ξNMe2Val = CC(C)C(C(=O)*)N(C)C; NMeV = CN[CH](C(=O)O)C(C)C

SMILES	melting point
O=C(Nc1ccc(Cl)cc1)NC1CCN(S(=O)(=O)c2ccc(C(=O)O)cc2)CC1	266 to 270 °C
Cc1ccc(O)c(Br)c1	16 °C
CCCCCCCCCCCCCCCCCCN(CCCCCCCCCCCCCCCCCC)C(=O)c1cc(NS(=O)(=O)c2ccc(S(=O)(=O)CCC#N)cc2)c2ccccc2c1O	85 to 86 °C
CN(Cc1ccccc1)Cc1c(-c2ccc([N+](=O)[O-])cc2)sc2c1c(=O)n(-c1ccccc1)c(=O)n2Cc1c(F)cccc1F	173 to 174 °C
O=S(=O)(Oc1ccc2c(OS(=O)(=O)c3ccc(OCc4ccccc4)cc3)c3cc(OS(=O)(=O)c4ccc(OCc5ccccc5)cc4)ccc3cc2c1)c1ccc(OCc2ccccc2)cc1	164 to 166 °C
O=C(Oc1cccc2c(OC(=O)c3ccc(OCc4ccccc4)cc3)c3c(OC(=O)c4ccc(OCc5ccccc5)cc4)cccc3cc12)c1ccc(OCc2ccccc2)cc1	240 to 242 °C
CCCCCCCCCCSc1c(SCCCCCCCCCC)c(SCCCCCCCCCC)c(C(O)=NCCO)c(C(=O)O)c1SCCCCCCCCCC	57 to 58 °C
CCCCCCCCCCCCCCCCCCN(CCCCCCCCCCCCCCCCCC)CCCN(CCOC(=O)Nc1ccccc1)CCOC(=O)Nc1ccccc1	54 to 56 °C
COc1cc(C2c3cc4c(cc3C(NC(=O)CNCCCN(CCCCNC(=O)OCc3ccccc3)C(=O)OCc3ccccc3)C3COC(=O)C23)OCO4)cc(OC)c1O (stereo not given)	255 °C
CC(=O)OC1C(O)C(C)OC(OC2C(OC(=O)C3CCC4C(C3)OC3(CC(OC(=O)C=Cc5ccccc5)C(C)CO3)C43CO3)OC(C)C(O)C2OC(C)=O)C1O (stereo not given)	125 to 127 °C
COC1=CC(=O)N(C(=O)C(OC(=O)C2CCCN2C(=O)C2CCCN2C(=O)C(C(C)C)N(C)C(=O)C(NC(=O)C(C(C)C)N(C)C)C(C)C)C(C)C)C1Cc1ccccc1 (stereo not given) (ξNMe2Val-V[NMeV]PP-X1; configuration not given here)	143 to 148 °C
CC1(C)CC(C(O)CNc2nc(NCCCCCCNc3nc(NCC(O)C4CC(C)(C)NC(C)(C)C4)nc(NCC(O)C4CC(C)(C)NC(C)(C)C4)n3)nc(NCC(O)C3CC(C)(C)NC(C)(C)C3)n2)CC(C)(C)N1 (stereo not given)	165 to 168 °C
CCc1c(CC[Si](Cl)(Cl)Cl)c(CC[Si](Cl)(Cl)Cl)c(CC[Si](Cl)(Cl)Cl)c(CC[Si](Cl)(Cl)Cl)c1CC[Si](Cl)(Cl)Cl	195 to 198 °C
CC(C)CCCC(C)C1CCC2C3CC=C4CC(N(CCCNC(=O)CCNC(=O)CCCCCNc5ccc([N+](=O)[O-])c6nonc56)S(=O)(=O)c5ccccc5[N+](=O)[O-])CCC4(C)C3CCC12C (stereo not given)	86 to 89 °C
CC(=O)OCC(COC(C)=O)NC(=O)c1c(I)c(NC(=O)OCC2CO2)c(I)c(C(=O)NC(COC(C)=O)COC(C)=O)c1I (stereo not given)	228 to 230 °C
CC#CCOc1ccc(S(=O)(=O)C(C(=O)NO)C2CCCCC2)cc1 (stereo not given)	191 °C
CC1(C)CC(OC(=O)C(CCCCCCC(Cc2ccccc2)(C(=O)OC2CC(C)(C)NC(C)(C)C2)C(=O)OC2CC(C)(C)NC(C)(C)C2)(Cc2ccccc2)C(=O)OC2CC(C)(C)NC(C)(C)C2)CC(C)(C)N1	129 to 130 °C
CCCCCCCCCCCCCCCCCCOc1cc(OCCCCc2ccc3cc(OCc4ccccc4)c(OCc4ccccc4)cc3c2)cc(N(CC(=O)O)CC(=O)O)c1	83 to 86 °C

SMILES	melting point
CC(=O)OCC(CNC(=O)c1c(I)c(NC(=O)C2CCCO2)c(I)c(C(=O)NCC(COC(C)=O)OC(C)=O)c1I)OC(C)=O (stereo not given)	101 to 104 °C
CCSC(=O)N(CC(C)C)CC(C)C	6 °C
CC(C)(C)c1cc(Cc2cc(C(C)(C)C)cc(-n3nc4ccc(S(=O)(=O)c5ccccc5)cc4n3)c2O)c(O)c(-n2nc3ccc(S(=O)(=O)c4ccccc4)cc3n2)c1	224 to 234 °C
O=c1c(CCCc2cccnc2)cc2cccnc2n1-c1cccc([N+](=O)[O-])c1	172 to 173 °C
[C-]#[N+]CCC(O)COc1ccc(C(C)(C)C)cc1 (stereo not given)	69 to 72 °C
CC(C)[C@H](NC(=O)N(C)Cc1cscn1)C(=O)N[C@@H](Cc1ccccc1)[C@@H](O)[C@H](O)[C@H](Cc1ccccc1)NC(=O)[C@@H](NC(=O)N(C)Cc1cscn1)C(C)C	92 to 94 °C
COc1ccc(C(O)CNCc2ccccc2[N+](=O)[O-])cc1OC (stereo not given)	120 to 121 °C
FC(F)(F)c1ccc(-c2cc(-c3ccc(C(F)(F)F)cc3C(F)(F)F)c3ccc4c(-c5ccc(C(F)(F)F)cc5C(F)(F)F)cc(-c5ccc(C(F)(F)F)cc5C(F)(F)F)c5ccc2c3c54)c(C(F)(F)F)c1	290 °C
Brc1c(Br)c(Br)c(Oc2nc(Oc3c(Br)c(Br)c(Br)c(Br)c3Br)nc(Oc3c(Br)c(Br)c(Br)c(Br)c3Br)n2)c(Br)c1Br	320 to 325 °C
ON=C(Cl)c1ccc(Cl)cc1	87.5 °C
O=C(O)C1=Cc2cc(Br)ccc2NC1C(F)(F)F (stereo not given)	185 to 186 °C
CCCCCCCCN=C(O)c1c(Sc2ccc([N+](=O)[O-])cc2)c(Sc2ccc([N+](=O)[O-])cc2)c(Sc2ccc([N+](=O)[O-])cc2)c(Sc2ccc([N+](=O)[O-])cc2)c1C(=O)O	202 to 204 °C
COc1cc(OC)c(/C=C/C(c2ccc(OC)c(NCCCC(=O)O)c2)S(=O)(=O)C(/C=C/c2c(OC)cc(OC)cc2OC)c2ccc(OC)c(NCCCC(=O)O)c2)c(OC)c1 (stereo not given)	86 to 88 °C
CC(C)(c1ccc(OCC(O)CN2C(=O)NC3(CC(C)(C)N(CCO)C(C)(C)C3)C2=O)cc1)c1ccc(OCC(O)CN2C(=O)NC3(CC(C)(C)N(CCO)C(C)(C)C3)C2=O)cc1 (stereo not given)	233 to 236 °C
CSc1ccc2c3c(cccc13)C(=O)N(O)C2=O	301 to 306 °C
CCC1=C(C#N)c2cc3c(c(O)c2CC1)C(=O)c1c(O)cccc1C3=O	227 to 228 °C
Nc1n[nH]cc1C(=O)O	135 °C
FC(F)(F)C(F)(F)C(F)(F)C(F)(F)C(F)(F)C(F)(F)CCc1ccc(P(c2ccc(CCC(F)(F)C(F)(F)C(F)(F)C(F)(F)C(F)(F)C(F)(F)F)cc2)c2ccc(CCC(F)(F)C(F)(F)C(F)(F)C(F)(F)C(F)(F)C(F)(F)F)cc2)cc1	49.9 to 52.4 °C

Next, values leading:

melting point	SMILES
144 °C	CCC(Cc1c(I)cc(I)c(NC(=O)CCCCCNC(=O)C(COCc2ccccc2)N2CCNCCNCCNCC2)c1I)C(=O)O (stereo not given)
86.5 °C	CCCCCCCCCCOc1cc2c(O)c(C(=O)OCC)cnc2cc1OCC
245 to 247 °C	COc1cc(C(=O)O)ccc1Cc1cn(C(C)=O)c2ccc(NC(=O)CC3CCCC3)cc12
109 to 111 °C	CC(C)[C@H](NC(=O)N(C)CCc1ccccn1)C(=O)N[C@@H](Cc1ccccc1)[C@H](O)[C@@H](O)[C@H](Cc1ccccc1)NC(=O)[C@@H](NC(=O)N(C)CCc1ccccn1)C(C)C
68.5 to 69.5 °C	CCCCCCCCCCCCCCCCCCOC(=O)c1cc(C(C)(C)C)c(O[Si](C)(C)Oc2c(C(C)(C)C)cc(C(=O)OCCCCCCCCCCCCCCCCCC)cc2C(C)(C)C)c(C(C)(C)C)c1
127 to 129 °C	CCOC(=O)COc1cccc2c1CCc1sc(S(=O)CC(c3ccccc3)c3ccccc3)nc1-2 (stereo not given)
> 220 °C	CC(C)C[C@H](NC(=O)[C@H](C)NC(=O)[C@H](C)NC(=O)OC(C)(C)C)C(=O)NCCNc1ccc(NCCNC(=O)[C@H](CC(C)C)NC(=O)[C@H](C)NC(=O)[C@H](C)NC(=O)OC(C)(C)C)c2c1C(=O)c1c(O)ccc(O)c1C2=O
270 °C	NS(=O)(=O)c1cccc(-c2noc(-c3cnn4ccc(-c5ccc(C(F)(F)F)cc5)nc34)n2)c1
177 to 185 °C	N=C(NC(=O)OCc1ccccc1)N(CCCC(NC(=O)C(Cc1ccccc1)NC(=O)c1ccccc1)C(=O)Oc1cccc2ccccc12)C(=O)OCc1ccccc1 (stereo not given)
179 to 181 °C	CCCCCCCCCCCCOC(CCCCCCCCCCC)CCOC1C(NC(C)=O)C(OCC2OC(C(=O)O)C(NC(=O)CC(O)CCCCCCCCCCC)C(OCCC(O)CCCCCCCCCCC)C2O)OC(CO)C1OP(=O)(O)O (stereo not given)
324 to 326 °C	O=P1(Oc2c(Br)c(Br)c(Br)c(Br)c2Br)OCC2(CO1)COP(=O)(Oc1c(Br)c(Br)c(Br)c(Br)c1Br)OC2 (stereo not given)
153 °C	CC12CC3CC(C)(C1)CC(N)(C3)C2
128 °C	CC(C)CCCOC(=O)NCCc1nc(-c2ccc(-c3ccccc3)cc2)c[nH]1
101 to 111 °C	CCc1cn(C2OC(CNC(=O)C(C)Oc3cc(OC)c(Br)cc3Br)C(OC(=O)C(NC(=O)OC(C)(C)C)C(C)C)C2F)c(=O)[nH]c1=O (stereo not given)
198 to 201 °C	Cc1ccc(S(=O)(=O)N2CCOCCN(S(=O)(=O)c3ccc(C)cc3)CCN(S(=O)(=O)c3ccc(C)cc3)CCN(S(=O)(=O)c3ccc(C)cc3)CC2)cc1
105 °C	CC(C)(C)OC(=O)NC(Cc1cc(I)c(Oc2cc(I)c(OCC3CO3)c(I)c2)c(I)c1)C(=O)OCC1CO1 (stereo not given)
174 to 176 °C	CCC1(CC)c2cc(-c3nc4ccccc4s3)ccc2-c2ccc(N(Cc3ccccc3)c3ccc4c(c3)C(CC)(CC)c3cc(-c5nc6ccccc6s5)ccc3-4)cc21
112 to 115 °C	COc1ccc([C@@H]2Sc3ccccc3N(CCN(C)C)C(=O)[C@@H]2OC(=O)CCC(=O)O[C@H]2C(=O)N(CCN(C)C)c3ccccc3S[C@H]2c2ccc(OC)cc2)cc1 (relative stereo)
150 to 152 °C	CCC(=O)OC1(C(=O)C(O)OC(=O)C(NC(=O)C2CCCN2C(=O)C(C)NC(=O)C(C)NC(=O)N(c2ccccc2)c2ccccc2)C(C)C)CCC2C3CC(C)C4=CC(=O)C=CC4(C)C3C(O)CC21C (stereo not given)
54.5 °C	C=CC(=O)OCCCCCCOc1ccc(C(=O)Oc2ccc(OC(=O)c3ccc(OCCCCCCOC(=O)C=C)cc3)c(C(=O)OCCCCCCCCOc3ccc(C#N)cc3)c2)cc1
59 to 61 °C	CCCCCCCCCCCCCCCCCCOc1cc(OCCCOc2ccccc2)cc(N(CC(=O)OCc2ccccc2)CC(=O)OCc2ccccc2)c1
214 to 216 °C	C=CCOCC(=O)Nc1c(I)c(C(=O)NC(COC(C)=O)COC(C)=O)c(I)c(C(=O)NC(COC(C)=O)COC(C)=O)c1I
-11 °C	BrCCCCCCCCCCCBr
153 to 158 °C	CCCCCCc1cc(C=C2C(=O)N(CC(CC)CCCC)C(=O)C(C#N)=C2C)sc1-c1ccc(-c2ccc(-c3sc(-c4ccc(N(c5ccccc5)c5ccccc5)cc4)cc3CCCCCC)s2)s1 (stereo not given)
